Source: US11548935B2 (NeoMatrix Therapeutics Inc., priority 2016, dated 2023)
“Also recorded” adds a separate entry of the source. Peptide text beside a SMILES is read from it.

How the values were obtained:
[1] = system: Adult human dermal fibroblasts CF31 cells; experiment: Fibroblast metabolism (XTT) assay with 1 nM PDGF-BB, 6 days; format: cell-based; conditions: for bioactivity as determined by fibroblast metabolism assay: FIG. 2, XTT OD 450 nm
Description: Adult human dermal fibroblasts CF31 cells at 1000 cells/well were seeded in a collagen-coated 96-well plate in DMEM overnight, then 1 nM PDGF-BB with peptides at indicated doses was added and cells were incubated at 37° C. for 6 days. Then cell metabolism was measured by XTT assay by reading OD at 450 nm. Each point represents the mean of 6 replicates with a typical SD=5-10% around the mean (not shown for graft clarity).
Adult human dermal fibroblasts, CF31, at 1000 cells/well were incubated at 37° C. in a collagen-coated 96-well plate with DMEM, 1 nM PDGF-BB with peptides at indicated doses for 6 days and then cell metabolism was measured by XTT assay, reading OD at 450 nm. Data represent the mean of 6 replicates.
P12, P46, cNP7 and cNP8 were compared for their ability to promote the survival of adult human dermal fibroblasts in the presence of PDGF-BB. Adult human dermal fibroblasts at 1000 cells/well were incubated in a collagen-coated 96-well plate with DMEM, 1 nM PDGF-BB with peptides at indicated doses for 6 days and then cell metabolism was measured by XTT assay. Data represent the mean of 6 replicates (FIG. 4).

PDGF-BB = PDGF-BB (Homo sapiens, UniProt P01127); experiment: Surface plasmon resonance (Biacore) binding to growth factor; conditions: plasmon surface resonance (Biacore T200)
PDGF-BB, sequence (P01127 82-190 limits assumed): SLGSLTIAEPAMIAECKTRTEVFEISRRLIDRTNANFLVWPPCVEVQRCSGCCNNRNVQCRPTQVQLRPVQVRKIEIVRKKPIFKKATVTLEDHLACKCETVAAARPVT
Description: (§1) To study the binding activities of these peptides, real time interactions of P12, P46, and cNP8 with growth factors were determined by plasmon surface resonance (Biacore T200).
In the Biacore2000 system, binding constants from kinetic data are determined by passing varying concentrations of FN peptides (analytes) over chip surfaces which are coupled with PDGF-BB (ligand), respectively. All kinetic experiments are carried out at 20° C. at a flow rate of 20 μl/min. For mass transport experiments, each analyte is injected at a fixed concentration and run at flow rates ranging from 5 to 75 μl/min. All analytes are injected over PDGF-BB ligand surfaces as well as over a control surface for 120 s, followed by 300 s of dissociation in running buffer. Regeneration of the sensor chip for subsequent injections is accomplished by pulse of 0.1% SDS. Mass transport experiments have detected little difference in response at different flow rates thus validating data from kinetic experiments. Sensorgrams are prepared and globally fitted using nonlinear least-squares analysis and numerical integration of the differential rate equations with the Biacore Bioevaluation software. […] Each data set, which consists of a series of sensorgrams from injections of different concentration of analyte over the same surface, is analyzed using kinetic models from Bioevaluation software.

[2] = molecular target: Transforming Growth Factor-Beta1 (TGF-β1) (Homo sapiens, UniProt P01137); experiment: as above; conditions: plasmon surface resonance (Biacore T200)
Transforming Growth Factor-Beta1 (TGF-β1), sequence (P01137 279-390 limits assumed, species assumed): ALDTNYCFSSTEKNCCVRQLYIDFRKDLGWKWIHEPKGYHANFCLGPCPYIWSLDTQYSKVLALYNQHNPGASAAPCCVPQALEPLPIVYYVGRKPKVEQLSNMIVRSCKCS
Description: as §1

[3] = molecular target: epidermal growth factor (EGF) (Homo sapiens, UniProt P01133); experiment: as above; conditions: plasmon surface resonance (Biacore T200)
epidermal growth factor (EGF), sequence (P01133 971-1023 limits assumed, species assumed): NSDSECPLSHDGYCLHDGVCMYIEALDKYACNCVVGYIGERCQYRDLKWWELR
Description: as §1

[4] = molecular target: insulin-like growth factor-1 (IGF-1) (Homo sapiens, UniProt P05019); experiment: as above; conditions: plasmon surface resonance (Biacore T200)
insulin-like growth factor-1 (IGF-1), sequence (P05019 49-118, species assumed): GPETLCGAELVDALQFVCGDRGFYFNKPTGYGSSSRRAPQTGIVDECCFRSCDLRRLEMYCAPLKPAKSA
Description: as §1

[5] = molecular target: T1, human neutrophil elastase (Homo sapiens, UniProt P08246)
T1 sequence (P08246 30-267): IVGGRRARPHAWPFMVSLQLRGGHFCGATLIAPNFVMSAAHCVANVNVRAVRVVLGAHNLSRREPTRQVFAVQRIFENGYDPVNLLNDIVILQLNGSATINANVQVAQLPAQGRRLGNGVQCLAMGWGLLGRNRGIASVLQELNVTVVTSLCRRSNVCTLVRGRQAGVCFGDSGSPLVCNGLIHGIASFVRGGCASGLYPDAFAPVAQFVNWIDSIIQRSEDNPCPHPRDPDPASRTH
Description: P46 was incubated with purified human neutrophil elastase at 1:100 enzyme:substrate molar ratio at 37° C. for 4 h (3A) or 24 h (3B). Peptides stability was determined by MALDI-TOF analysis.
Peptides' stability was determined by MALDI-TOF analysis.
The reaction was stopped with formic acid and the reaction mixture was analyzed by mass spectroscopy.
To determine the sensitivity of P46 to elastase digestion, P46 was synthesized and digested with elastase. […] P46 was incubated with purified human neutrophil elastase at 1:100 enzyme:substrate molar ratio at 37° C. for 4 h (FIG. 3A) or 24 h (FIG. 3B). The elastase-generated smaller peptides were determined by MALDI-TOF analysis.
Peptide's stability was determined by MALDI-TOF analysis.

[6] = system: adult human dermal fibroblast; experiment: Screening experiment of adult human dermal fibroblast survival in medium without serum with 1 nM PDGF-BB; format: cell-based; conditions: 6 days of incubation
burn wounds [7] = experiment: Topical treatment of porcine deep partial-thickness burns (PLO gel); format: in vivo, pig; conditions: 48-hour debrided wounds, 10 days after wounding, vs control or cP12 (FIG. 6)
Description: Four female, 20-30 kg, domestic pigs were used for cutaneous wound procedures.
Study Protocol: The animals were sedated with Talazine (Tiletamine and Zolazepam, Fort Dodge Lab, Fort Dodge, Iowa) 5 mg/kg IM. The pigs were then intubated endotracheally and maintained under a surgical plane of anesthesia with isoflurane 0.5-2.5% in room air. The flank and back hair were clipped with electric hair clippers and the skin was scrubbed with a povidone iodine solution.
Standardized deep partial-thickness burns were created on the animals' backs and flanks by applying a 2.5-cm by 2.5-cm, 150-gram aluminum bar preheated in hot water to 80° C. The burns were created on either side of the vertebral column between the forelegs and hind legs. The heated bar was wiped dry just prior to application to prevent water droplets from creating a steam burn on the skin. The bar was then placed at a vertical position perpendicular to the skin's surface and applied for a period of 20 seconds with all pressure supplied by gravity. […] 24 burns were evenly distributed on both sides of the back of four pigs. […] Debridement was performed by gently rubbing dry gauze against the surface of the burn until the necrotic epidermis was peeled away from the entire burn surface. Interventions: On the back skin of each pig, equal sets of 4 burns were randomly treated with one of the 6 study treatments. […]

burn wounds [8] = experiment: Intravenous treatment in porcine vertical progression burn model; format: in vivo, pig; conditions: intravenous infusion 0.001, 0.01 or 0.1 mg/kg
Description: The vertical progression burn model (as shown in above topical experiment) was used to create burns on the backs of each of 4 pigs. Twenty burns (80° C./20 seconds) were made on the backs of each pig—one set of burns was made 8 hours prior to infusion, the second set was made 4 hours prior to infusion. Three pigs were treated with infusions of 0.001, 0.01 or 0.1 mg/kg of cNP8 and one pig was treated with an infusion of buffer, as control. Lyophilized cNP8 was reconstituted in PBS (11.6 mg/ml corrected-based on 75% pure) to get a 5 mM stock solution in the laboratory and filtered with a syringe filter with 0.22 um membrane. The concentration of filtered cNP8 solution was determined by reading OD280 and the concentration was calculated based on OD280=6.76 per mM cNP8. The cNP8 was diluted to 5 mM with PBS as necessary. The filtered cNP8 solution was aliquoted and stored at −80° C. Just before infusion, cNP8 was further diluted: a) 1:270 with PBS to get a 0.019 mM cNP8 solution. The injection amount was 3 ml/kg body weight of 0.019 mM cNP8 which is equal to 0.1 mg/kg body weight. b) 1:2700 with PBS to get a 0.0019 mM cNP8 solution. The injection was 3 ml/kg body weight of 0.0019 mM cNP8 which is equal to 0.01 mg/kg body weight. c) 1:27000 with PBS to get a 0.00019 mM cNP8 solution. The injection amount was 3 ml/kg body weight of 0.00019 mM cNP8 which is equal to 0.001 mg/kg body weight. […]

[9] = system: human neutrophil elastase; experiment: purified human neutrophil elastase; conditions: up to 24 h

HISKYILRWRPKNSV (polypeptide according to formula I) [P46]
bioactivity as determined by fibroblast metabolism assay [1]: much higher bioactivity than that of P12 | promotion of survival of adult human dermal fibroblasts in the presence of PDGF-BB ([1]; FIG. 4, XTT): promoted the survival of adult human dermal fibroblasts | binding to PDGF-BB (PDGF-BB): bind | binding to TGF-β1 [2]: bind | binding to EGF [3]: did not bind | binding to IGF-1 [4]: did not bind | sensitivity to elastase digestion [5]: retained some sensitivity to elastase digestion

HISKYILGWRPKNSV (NP9 peptide) [engineered peptide designed from P46]
biological activity on screening experiment of fibroblast survival [6]: minimal biological activity

CC[C@H](C)[C@@H]1NC(=O)[C@H](Cc2c[nH]cn2)NC(=O)[C@H](C(C)C)NC(=O)[C@H](CO)NC(=O)CNC(=O)[C@H](CCCCN)NC(=O)[C@@H]2CCCN2C(=O)[C@H](CCCNC(=N)N)NC(=O)[C@H](Cc2c[nH]c3ccccc23)NC(=O)[C@H](CCCNC(=N)N)NC(=O)[C@H](CC(C)C)NC(=O)CNC(=O)[C@H](Cc2ccc(O)cc2)NC(=O)[C@H](CCCCN)NC(=O)CNC1=O [cNP8, HIGKYGLRWRPKGSV] (cyclo(HIGKYGLRWRPKGSV))
bioactivity compared with other peptides ([1]; FIG. 4, XTT): equivalent or better bioactivity; also recorded: much higher bioactivity than that of P12 | promotion of survival of adult human dermal fibroblasts in the presence of PDGF-BB ([1]; FIG. 4, XTT): promoted the survival of adult human dermal fibroblasts | binding to PDGF-BB (PDGF-BB): bind | binding to TGF-β1 [2]: bind | binding to EGF [3]: did not bind | binding to IGF-1 [4]: did not bind | re-epithelialization (burn wounds [7]): markedly increased | re-epithelialization (burn wounds [8]; day 10 post-injury (FIG. 7)): markedly increased; also recorded: increase of re-epithelialization | re-epithelialization (burn wounds [8]; day 14 post-injury (FIG. 8)): markedly increased; also recorded: increase of re-epithelialization

HISKYILRGRPKNSV (NP10 peptide) [engineered peptide designed from P46]
biological activity on screening experiment of fibroblast survival [6]: minimal biological activity

cyclo(HIGKYGLRWRPKGSV) (SMILES CC[C@H](C)[C@@H]1NC(=O)[C@H](Cc2c[nH]cn2)NC(=O)[C@H](C(C)C)NC(=O)[C@H](CO)NC(=O)CNC(=O)[C@H](CCCCN)NC(=O)[C@@H]2CCCN2C(=O)[C@H](CCCNC(=N)N)NC(=O)[C@H](Cc2c[nH]c3ccccc23)NC(=O)[C@H](CCCNC(=N)N)NC(=O)[C@H](CC(C)C)NC(=O)CNC(=O)[C@H](Cc2ccc(O)cc2)NC(=O)[C@H](CCCCN)NC(=O)CNC1=O)
not cleaved ([9]; 37° C.): A large majority of intact peptide was retained at 24 h

PSHISKYILRWRPK [cP12]
degradation by neutrophil elastase [5]: remain sensitive to this endopeptidase | number of elastase-cleavage sites [5]: five

HIGKYGLRWRPKNSV [cNP7, cyclic form of engineered peptide NP7]
promotion of survival of adult human dermal fibroblasts in the presence of PDGF-BB ([1]; FIG. 4, XTT): promoted the survival of adult human dermal fibroblasts

PSHISKYILRWRPK
fragment found [9]: KYILRWRPKPSHIS; also recorded: RWRPKPSHISKYIL

SKYILRWRPKNSV (P45 peptide) [peptide produced by elastase digestion of FN III1-C]
bioactivity as determined by fibroblast metabolism assay [1]: little bioactivity

HIGKYGLRWRPKGSV (polypeptide according to formula I) [NP8, engineered peptide designed from P46]
biological activity on screening experiment of fibroblast survival [6]: best biological activity

HISKYILRWGPKNSV (NP11 peptide) [engineered peptide designed from P46]
biological activity on screening experiment of fibroblast survival [6]: minimal biological activity
